Experimental data: US6407237B1, “Crystal forms of 9-substituted hypoxanthine derivatives” (NeoTherapeutics, Inc., priority 2000, dated 2002)
“Also recorded” adds a separate entry of the source.

Key:
[1] = Hydration and dehydration (interconversion) studies of crystal structures, checked by X-ray powder pattern; type: physicochemical; conditions: for crystal structure after incubation in humid chamber (H2O vapor) at 25° C. / crystal structure after incubation in humid chamber (H2O vapor) at 70° C.: 48 h
Method: X-ray powder patterns were measured with a β-Generator Philips PW 1120/90 equipped with a CuKα Guinier-de Wolff Camera No. 11 (Enraf-Nonius).
Starting from different crystal structures, hydration and dehydration studies were performed (FIG. 1, Table 2). The crystal structure designated Type I (lot NTA-107-B) is obtained by equilibration of Type II (lot NTA-107-A) with water vapor in a humid chamber, whereas Type III was generated by dehydration of Type I in a vacuum drying oven at elevated temperature (Tables 1 and 2). The X-ray powder patterns of the Type I and II crystal structures are not sensitive to small changes in the water content and appear uniform from batch to batch.
The well-resolved powder diagrams of these two forms indicate well ordered crystal lattice structures (FIG. 3). […] The manufacturing process leads to a water-soluble (5% w/v) crystalline product of the monopotassium salt of N-4-carboxyphenyl-3-(6-oxohydropurin-9-yl) propanamide monohydrate Type I (active pharmaceutical ingredient). N-4-carboxyphenyl-3-(6-oxohydropurin-9-yl) propanamide monopotassium salt exists, as known so far, in three different crystal structures (Types I-III) depending upon the water content.

[2] = Hygroscopicity of the crystal structure; type: physicochemical
[3] = type: physicochemical
From the text: The occurrence of polymorphic forms can be examined by various physico-chemical investigation techniques. The solubility measured under defined conditions can provide information regarding the occurrence of different crystal structures. However, the preferred technique for the investigation of the polymorphism of N-4-carboxyphenyl-3-(6-oxohydropurin-9-yl) propanamide monopotassium salt is the analysis of the X-ray diffraction powder diagrams, which allows the distinct crystal structures to be clearly distinguished by their characteristic powder patterns. The powder pattern, position, intensity and sharpness of the bands are dependent upon the crystal structure and the fine arrangement of the atoms in the crystal lattice, which in turn are both influenced by the content of crystal water. For this study, material from different batches of N-4-carboxyphenyl-3-(6-oxohydropurin-9-yl) propanamide monopotassium salt was used, either in the original or in a dry or wet state (Table 1).
In aqueous solutions prepared with material which was synthesized by the route designated “direct crystallization” a fine microcrystalline precipitate of the N-4-carboxyphenyl-3-(6-oxohydropurin-9-yl) propanamide free acid was formed after 2-3 min. Although the assay of K is 1.0 equivalent and although direct crystallized K-salt is isolated at equal or slightly higher pH (H 8.7) than K-salt synthesized from N-4-carboxyphenyl-3-(6-oxohydropurin-9-yl) propanamide free acid (pH 8.5), only the latter is completely soluble in water. […] The free acid precipitates and generates the di-K salt until its concentration is high enough to keep the precipitation and dissolution of the free acid at equilibrium. The solubility of N-4-carboxyphenyl-3-(6-oxohydropurin-9-yl) propanamide Type II (lot Am 960/a) in aqueous solution was measured as a function of temperature (FIG. 2). In the solubility curve a plateau is reached at 70° C. (17% w/w).

O.O=C(CCn1cnc2c(=O)[nH]cnc21)Nc1ccc(C(=O)[O-])cc1.[K+] [Type I, N-4-carboxyphenyl-3-(6-oxohydropurin-9-yl) propanamide monopotassium salt monohydrate]
crystal structure after incubation in humid chamber (H2O vapor) at 25° C. ([1]; monopotassium salt monohydrate): stable; also recorded: remains unchanged; also recorded: Type I
crystal structure after incubation in humid chamber (H2O vapor) at 70° C. ([1]; monopotassium salt monohydrate): stable; also recorded: remains unchanged; also recorded: Type I
crystal structure after strong drying in vacuum oven ([1]; 140° C., 5 mbar, monopotassium salt monohydrate): Type III was obtained
hygroscopicity [2]: only slightly hygroscopic

O=C(CCn1cnc2c(=O)[nH]cnc21)Nc1ccc(C(=O)[O-])cc1.[K+] [Type II, N-4-carboxyphenyl-3-(6-oxohydropurin-9-yl) propanamide monopotassium salt]
crystal structure after incubation in humid chamber (H2O vapor) at 25° C. ([1]; monopotassium salt): Type II
crystal structure after incubation in humid chamber (H2O vapor) at 70° C. ([1]; monopotassium salt): interconversion of Type II into Type I crystal structure
solubility in aqueous solution as a function of temperature, plateau of solubility curve [3]: 17 % w/w
solubility in water [3]: about 10 % (w/v)

O=C(CCn1cnc2c(=O)[nH]cnc21)Nc1ccc(C(=O)[O-])cc1.[K+] [Type III, N-4-carboxyphenyl-3-(6-oxohydropurin-9-yl) propanamide monopotassium salt]
crystal structure after incubation in humid chamber (H2O vapor) at 25° C. ([1]; monopotassium salt): turns completely into Type I

O=C(CCn1cnc2c(=O)[nH]cnc21)Nc1ccc(C(=O)O)cc1 [free acid, N-4-carboxyphenyl-3-(6-oxohydropurin-9-yl) propanamide]
solubility of the free acid in water [3]: extreme low solubility
